# What was measured:
# plasma LH = assay: Plasma LH concentration (radioimmunoassay) in treated heifers; format: in vivo, cattle (Hereford-cross beef heifers); details: n=15, P=0.61
# Description: (§1) Heifers in which a CL was detected were given two luteolytic doses of PGF (12 h apart) and monitored by ultrasonography for ovulation. Five to eight days later, the two largest ovarian follicles were ablated by transvaginal ultrasound-guided follicular aspiration to synchronize follicular wave emergence which was expected to occur 1 to 1.5 days later. Prostaglandin (500 μg cloprostenol, Estrumate, Schering-Plough Animal Health, Pointe-Claire, QC, Canada) was given intramuscularly at 60 and 72 h after follicular ablation to induce regression of the CL and shift from a non-ovulatory to an ovulatory follicular wave. […] Devices were inserted on Day 1 and were kept in place until Day 7 or until ovulation was detected, which ever occurred first. […]
# Plasma LH concentrations were determined in duplicate using a double-antibody radioimmunoassay (NIDDK-bLH4). […] All samples were analyzed in a single assay; the intra-assay coefficient of variation was 11.4% for low reference samples (mean, 0.9 ng/mL) and 12.2% for high reference samples (mean, 2.1 ng/mL).
# (§2) Statistical analyses were done using the Statistical Analysis System software package (SAS Learning Edition 9.1, 2006; SAS Institute Inc., Cary, NC, USA). Time-series data (hormone concentrations, follicle and CL diameter profiles) were analyzed by repeated measures using the PROC MIXED procedure. […]
# plasma estradiol = assay: Plasma estradiol concentration (radioimmunoassay) in treated heifers; format: in vivo, cattle (Hereford-cross beef heifers)
# Description: as §1
# Plasma concentrations of estradiol were determined using a commercial radioimmunoassay kit (Double Antibody Estradiol; Diagnostic Products Corp., Los Angeles, CA, USA). […]
# as §2
compound,measurement,setting,value
N#Cc1ccc(C(c2ccc(C#N)cc2)n2cncn2)cc1 [Letrozole],Mean plasma LH concentrations versus control,plasma LH,did not differ
same,Delay of preovulatory rise in estradiol versus control,plasma estradiol; n=15,24 h
same,Plasma estradiol concentrations versus control,"plasma estradiol; n=15, P=0.04",lower

# From PMC3853024, “Aromatase inhibitor treatment with an intravaginal device and its effect on pre-ovulatory ovarian follicles in a bovine model” (Reproductive Biology and Endocrinology : RB&E, 2013)
